Data reported in US11655235B2, “Pyrrolidine and piperidine compounds” (YUHAN CORPORATION, priority 2019, dated 2023).

Key:
Recombinant human FAP = molecular target: T1, Recombinant human FAP (Homo sapiens, UniProt Q12884); test: FAP inhibition, fluorogenic substrate Z-Gly-Pro-AMC; format: biochemical; conditions: for inhibition at 1 µM: read-out: hFAP inhibition % at 1 μM
T1 construct: purchased R&D systems
T1 sequence (Q12884 1-760): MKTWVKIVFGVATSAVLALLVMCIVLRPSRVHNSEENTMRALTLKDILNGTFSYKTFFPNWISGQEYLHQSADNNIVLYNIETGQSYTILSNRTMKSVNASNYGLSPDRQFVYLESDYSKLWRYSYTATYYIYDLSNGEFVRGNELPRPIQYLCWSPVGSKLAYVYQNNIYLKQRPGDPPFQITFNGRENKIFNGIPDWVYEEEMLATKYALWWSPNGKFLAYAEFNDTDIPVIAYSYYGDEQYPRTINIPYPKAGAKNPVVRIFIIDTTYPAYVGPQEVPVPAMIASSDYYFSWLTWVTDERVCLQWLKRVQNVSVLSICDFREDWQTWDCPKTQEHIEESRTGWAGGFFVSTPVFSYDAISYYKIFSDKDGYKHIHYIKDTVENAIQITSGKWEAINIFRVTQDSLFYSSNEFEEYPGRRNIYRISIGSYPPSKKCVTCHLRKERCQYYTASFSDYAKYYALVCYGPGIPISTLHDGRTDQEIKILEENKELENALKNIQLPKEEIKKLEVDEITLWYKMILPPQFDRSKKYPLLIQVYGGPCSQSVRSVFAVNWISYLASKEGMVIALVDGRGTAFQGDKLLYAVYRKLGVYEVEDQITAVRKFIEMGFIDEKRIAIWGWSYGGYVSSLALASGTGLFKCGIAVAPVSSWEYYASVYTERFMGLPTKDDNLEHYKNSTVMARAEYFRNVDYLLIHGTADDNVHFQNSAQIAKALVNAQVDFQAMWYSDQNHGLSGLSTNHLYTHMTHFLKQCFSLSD
Method: The compounds according to the present technology were evaluated in terms of the inhibitory effect on the activity of dipeptidyl peptidases including FAP by using a substrate producing fluorescent substances upon enzymatic decomposition. The test was conducted at 25° C. to get a final reaction volume of 100 μL in a 96 black well plate. […] Briefly, the test compounds were dissolved in dimethyl sulfoxide (DMSO) at a concentration of 20 mM and then subjected to serial dilution, thereby creating an 8 point curve. As for the control group, a 6 point curve created by serial dilution of Talabostat in the same buffer solution was used. Fluorescence intensity was measured using a microplate reader (Flexstation3, Molecular Devices) under the wavelength condition exciting at 380 nm and reading the emission at 460 nm. The inhibitory effect of the test compounds was measured as a decrease (%) in the signal rate as compared to the control group without any inhibitor. Data was fixed to a logistic model with four variables and IC50 value was calculated using GraphPad Prism program. Recombinant human FAP (R&D systems) was diluted with 50 mM tris (pH 7.5) buffer comprising 1 M of sodium chloride and 1 mg/ml of bovine serum albumin (BSA) to be 10 ng per final reaction. The test compounds were subjected to serial dilution in a buffer under the condition containing up to 0.1% of DMSO. Z-Gly-Pro-AMC (Bachem) was used as a substrate. By dissolving in DMSO and then diluting in the same buffer, the substrate was added to be […] per final reaction.

DPP4 = DPP4 (Homo sapiens, UniProt P27487); test: DPP4 inhibition, fluorogenic substrate H-Gly-Pro-AMC; format: biochemical; set-up: purchased R&D Systems; conditions: for inhibition at 1 µM: read-out: hDPP4 inhibition % at 1 μM
Chain of DPP4 (P27487 whole entry): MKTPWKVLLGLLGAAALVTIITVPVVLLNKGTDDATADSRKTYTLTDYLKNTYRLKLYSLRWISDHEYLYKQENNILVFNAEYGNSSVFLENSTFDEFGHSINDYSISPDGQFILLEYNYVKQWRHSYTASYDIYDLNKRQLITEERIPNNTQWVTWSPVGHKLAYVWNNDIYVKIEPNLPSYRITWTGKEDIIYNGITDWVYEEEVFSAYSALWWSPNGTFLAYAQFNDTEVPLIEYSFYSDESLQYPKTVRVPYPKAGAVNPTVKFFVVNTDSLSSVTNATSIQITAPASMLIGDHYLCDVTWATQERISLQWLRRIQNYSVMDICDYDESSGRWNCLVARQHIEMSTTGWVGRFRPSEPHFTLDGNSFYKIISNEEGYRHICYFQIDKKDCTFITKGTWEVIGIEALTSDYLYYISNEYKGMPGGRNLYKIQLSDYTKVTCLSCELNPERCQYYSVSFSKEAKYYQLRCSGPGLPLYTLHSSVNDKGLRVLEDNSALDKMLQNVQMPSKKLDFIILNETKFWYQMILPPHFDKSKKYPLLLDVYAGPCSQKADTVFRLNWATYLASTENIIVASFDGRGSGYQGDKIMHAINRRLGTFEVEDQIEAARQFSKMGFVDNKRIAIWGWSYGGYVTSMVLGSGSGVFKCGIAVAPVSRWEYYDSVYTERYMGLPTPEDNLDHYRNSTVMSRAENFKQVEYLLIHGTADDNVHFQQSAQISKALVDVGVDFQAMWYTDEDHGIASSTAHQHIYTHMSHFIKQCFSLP
Method: The compounds according to the present technology were evaluated in terms of the inhibitory effect on the activity of dipeptidyl peptidases including FAP by using a substrate producing fluorescent substances upon enzymatic decomposition. The test was conducted at 25° C. to get a final reaction volume of 100 μL in a 96 black well plate. […] Briefly, the test compounds were dissolved in dimethyl sulfoxide (DMSO) at a concentration of 20 mM and then subjected to serial dilution, thereby creating an 8 point curve. As for the control group, a 6 point curve created by serial dilution of Talabostat in the same buffer solution was used. Fluorescence intensity was measured using a microplate reader (Flexstation3, Molecular Devices) under the wavelength condition exciting at 380 nm and reading the emission at 460 nm. The inhibitory effect of the test compounds was measured as a decrease (%) in the signal rate as compared to the control group without any inhibitor. Data was fixed to a logistic model with four variables and IC50 value was calculated using GraphPad Prism program. As for recombinant human DPP4 (R&D Systems), 25 mM tris (pH 8.0) buffer as a buffer solution and H-Gly-Pro-AMC (Bachem) as a substrate were used. As for recombinant human DPP7 (R&D Systems), 25 mM MES (pH 6.0) buffer as a buffer solution and Lys-Pro-AMC (Bachem) as a substrate were used. As for recombinant human DPP8 (PBS Bioscience), as a buffer solution, a 10 mM tris (pH 7.4) buffer comprising 10 mM of magnesium chloride and 0.05% of Tween 20, and Z-Ala-Pro-AMC (BPS Bioscience) as a substrate were used. As for recombinant human DPP9 (R&D Systems), a 25 mM tris (pH 8.0) buffer as a buffer solution and H-Gly-Pro-AMC (Bachem) as a substrate were used. As for recombinant human PREP (R&D System), as a buffer solution, a 25 mM tris (pH 7.5) buffer comprising 250 mM sodium chloride and 2.5 mM DTT (Dithiolthreitol), and Z-Gly-Pro-AMC (Bachem) as a substrate were used. The evaluation was made by using 10 ng of DPP4, PDD7, and PREP, 20 ng of DPP8, and 50 ng of DPP9 based on the final reaction. In the evaluation of DPP4, the test compounds were subjected to serial dilution in a buffer under the condition containing up to 0.1% of DMSO. In the evaluation of DPP7, DPP8, DPP9, and PREP, the test compounds were subjected to serial dilution in each buffer under the condition containing up to 0.5% of DMSO.

[1] = 25° C., Z-Gly-Pro-AMC substrate
[2] = recombinant human FAP, substrate Z-Gly-Pro-AMC

IC50 (Recombinant human FAP; [1])	inhibition at 1 µM (DPP4)	other results	SMILES
163 nM	4.4%	–	N#C[C@@H]1CCCN1C(=O)CN1CC[C@@H](C(=O)Nc2cnc3ccccc3c2)C1 [Example 1, (R)-1-(2-((S)-2-cyanopyrrolidin-1-yl)-2-oxoethyl)-N-(quinolin-3-yl)pyrrolidine-3-carboxamide]
84.5 nM	14.6%	–	N#C[C@@H]1CCCN1C(=O)CN1CC[C@@H](C(=O)Nc2ccnc3ccccc23)C1 [Example 2, (R)-1-(2-((S)-2-cyanopyrrolidin-1-yl)-2-oxoethyl)-N-(quinolin-4-yl)pyrrolidine-3-carboxamide]
175 nM	4.2%	–	N#C[C@@H]1CCCN1C(=O)CN1CC[C@H](C(=O)Nc2cnc3ccccc3c2)C1 [Example 3, (S)-1-(2-((S)-2-cyanopyrrolidin-1-yl)-2-oxoethyl)-N-(quinolin-3-yl)pyrrolidine-3-carboxamide]
99.2 nM	15.1%	–	N#C[C@@H]1CCCN1C(=O)CN1CC[C@H](C(=O)Nc2ccnc3ccccc23)C1 [Example 4, (S)-1-(2-((S)-2-cyanopyrrolidin-1-yl)-2-oxoethyl)-N-(quinolin-4-yl)pyrrolidine-3-carboxamide]
25.3 nM	–	hDPP4 inhibition % at 1 μM (DPP4): No inhibition**	N#C[C@@H]1CCCN1C(=O)CN1CC[C@@H](Nc2cccc(-c3ccccc3)c2)C1 [Example 18, (S)-1-(2-((R)-3-([1,1′-biphenyl]-3-ylamino)pyrrolidin-1-yl)acetyl)pyrrolidine-2-carbonitrile]
34.1 nM	3.6%	–	N#C[C@@H]1CCCN1C(=O)CN1CC[C@H](Nc2cccc3ccsc23)C1 [Example 21, (S)-1-(2-((S)-3-(benzo[b]thiophen-7-ylamino)pyrrolidin-1-yl)acetyl)pyrrolidine-2-carbonitrile]
9.03 nM	4.2%	–	N#C[C@@H]1CCCN1C(=O)CN1CC[C@H](Nc2cccc3ccoc23)C1 [Example 22, (S)-1-(2-((S)-3-(benzofuran-7-ylamino)pyrrolidin-1-yl)acetyl)pyrrolidine-2-carbonitrile]
57.6 nM	2.9%	–	N#C[C@@H]1CCCN1C(=O)CN1CC[C@@H](Nc2cccc3ccsc23)C1 [Example 25, (S)-1-(2-((R)-3-(benzo[b]thiophen-7-ylamino)pyrrolidin-1-yl)acetyl)pyrrolidine-2-carbonitrile]
–	0.4%	inhibition at 1 µM (Recombinant human FAP): 93.7%	N#C[C@@H]1C[C@@H]2C[C@@H]2N1C(=O)CN1CC[C@H](Nc2cncc3ccoc23)C1 [Example 26, (1S,3S,5S)-2-(2-((S)-3-(furo[3,2-c]pyridin-7-ylamino)pyrrolidin-1-yl)acetyl)-2-azabicyclo[3.1.0]hexane-3-carbonitrile]
145 nM	–	hDPP4 inhibition % at 1 μM (DPP4): No inhibition**	N#C[C@@H]1CCCN1C(=O)CN1CC[C@H](NC(=O)c2ccnc3ccccc23)C1 [Example 30, N—((S)-1-(2-((S)-2-cyanopyrrolidin-1-yl)-2-oxoethyl)pyrrolidin-3-yl)quinoline-4-carboxamide]
164 nM	5.4%	–	N#C[C@@H]1CCCN1C(=O)CN1CC[C@H](NC(=O)c2cnc3ccccc3c2)C1 [Example 31, N—((S)-1-(2-((S)-2-cyanopyrrolidin-1-yl)-2-oxoethyl)pyrrolidin-3-yl)quinoline-3-carboxamide]
70.4 nM	2%	–	N#C[C@@H]1CCCN1C(=O)CN1CC[C@H](NC(=O)c2cccc3ncccc23)C1 [Example 32, N—((S)-1-(2-((S)-2-cyanopyrrolidin-1-yl)-2-oxoethyl)pyrrolidin-3-yl)quinoline-5-carboxamide]
–	–	inhibition at 1 µM (Recombinant human FAP): 66.1%; hDPP4 inhibition % at 1 μM (DPP4): No inhibition**	N#C[C@@H]1CCCN1C(=O)CN1CC[C@H](NC(=O)c2ccc3ccccc3n2)C1 [Example 33, N—((S)-1-(2-((S)-2-cyanopyrrolidin-1-yl)-2-oxoethyl)pyrrolidin-3-yl)quinoline-2-carboxamide]
86.1 nM	–	–	CN(c1ccc2ccccc2n1)[C@@H]1CCN(CC(=O)N2CCC[C@H]2C#N)C1 [Example 137, (2S)-1-[2-[(3R)-3-[methyl(2-quinolyl)amino]pyrrolidin-1-yl]acetyl]pyrrolidine-2-carbonitrile]
34.1 nM	–	–	CN(c1ccc2cccnc2c1)[C@@H]1CCN(CC(=O)N2CCC[C@H]2C#N)C1 [Example 141, (2S)-1-[2-[(3R)-3-[methyl(7-quinolyl)amino]pyrrolidin-1-yl]acetyl]pyrrolidine-2-carbonitrile]
55.4 nM	–	–	CN(c1ccnc2ccccc12)[C@H]1CCN(CC(=O)N2CCC[C@H]2C#N)C1 [Example 143, (2S)-1-[2-[(3S)-3-[methyl(4-quinolyl)amino]pyrrolidin-1-yl]acetyl]pyrrolidine-2-carbonitrile]
14.7 nM	–	–	CN(c1cncc2ccccc12)[C@H]1CCN(CC(=O)N2CCC[C@H]2C#N)C1 [Example 147, (2S)-1-[2-[(3S)-3-[4-isoquinolyl(methyl)amino]pyrrolidin-1-yl]acetyl]pyrrolidine-2-carbonitrile]
–	–	IC50 (Recombinant human FAP; [2]): 29 nM	N#C[C@@H]1CCCN1C(=O)CN1CC[C@@H](Nc2ccc3cccnc3c2)C1 [Example 163, (2S)-1-[2-[(3R)-3-(7-quinolylamino)pyrrolidin-1-yl]acetyl]pyrrolidine-2-carbonitrile]
–	–	IC50 (Recombinant human FAP; [2]): 56.8 nM	N#C[C@@H]1CCCN1C(=O)CN1CC[C@@H](Nc2cccc3cccnc23)C1 [Example 164, (2S)-1-[2-[(3R)-3-(8-quinolylamino)pyrrolidin-1-yl]acetyl]pyrrolidine-2-carbonitrile]
–	–	IC50 (Recombinant human FAP; [2]): 11.5 nM	N#C[C@@H]1C[C@H](F)CN1C(=O)CN1CC[C@@H](Nc2ccc3cccnc3c2)C1 [Example 168, (2S,4S)-4-fluoro-1-[2-[(3R)-3-(7-quinolylamino)pyrrolidin-1-yl]acetyl]pyrrolidine-2-carbonitrile]
–	–	IC50 (Recombinant human FAP; [2]): 35.4 nM	N#C[C@@H]1C[C@H](F)CN1C(=O)CN1CC[C@@H](Nc2cccc3cccnc23)C1 [Example 169, (2S,4S)-4-fluoro-1-[2-[(3R)-3-(8-quinolylamino)pyrrolidin-1-yl]acetyl]pyrrolidine-2-carbonitrile]
